Laboratory results taken from PMC10016038, “Enhanced Endosomal Signaling and Desensitization of GLP-1R vs GIPR in Pancreatic Beta Cells” (Endocrinology, 2023).
Ends that are not written are not given here.

Tests used:
[1] = system: endogenous GLP-1R in mouse islets; assay: Confocal imaging of TMR agonist in mouse primary islets, GLP-1R; type: cell-based; details: 100 nM GLP-1-TMR; 15 minutes
Description: (§1) Nondiabetic mice of both sexes were used for islet isolation. Briefly, pancreata were infused via the common bile duct with RPMI-1640 medium containing 1 mg/mL collagenase from Clostridium histolyticum (Nordmark Biochemicals), dissected, and incubated in a water bath at 37 °C for 10 minutes. Islets were subsequently washed and purified using a Histopaque gradient (Histopaque-1119, 11191, Sigma-Aldrich, and Histopaque-1083, 10831, Sigma-Aldrich). Isolated islets were allowed to recover overnight at 37 °C in 5% CO2 in RPMI-1640 supplemented with 10% FBS and 1% penicillin/streptomycin. All procedures were carried out in accordance with the regulations of the UK Home Office Animals (Scientific Procedures) Act and the Imperial College London guidelines for animal care. Animal protocols were approved by the Home Office Animals in Science Regulation Unit (ASRU) under Project License number PP7151519 to Dr. A. Martinez-Sanchez.
Figure 1. […] (C) GLP-1R vs GIPR internalization dose response curves measured by high-content microscopy assay (HCA) in the same cells as above. […] (F) Quantification of surface GLP-1R vs GIPR levels in WT mouse islets using fluorescent agonist uptake data from (E); data corrected for binding affinity differences between both agonists; n = 4. (G) GLP-1R vs GIPR recycling dose response curves measured by high-content microscopy assay (HCA) in cells from (C); n = 5. […]

T2D patients = details: dual GLP-1R/GIPR targeting peptides; cited from earlier work
Source text: Incretin receptors, comprising the glucagon-like peptide-1 receptor (GLP-1R) and the glucose-dependent insulinotropic polypeptide receptor (GIPR), are key components of the glucoregulatory system due to their capacity to prevent postprandial hyperglycemia by amplifying insulin secretion from pancreatic beta cells in a glucose-dependent manner ([1]). Since their discovery and cloning in the 1990s ([2-4]), both receptors have been recognized for their glucose lowering potential. However, while the GLP-1R has successfully been exploited for the treatment of type 2 diabetes (T2D), with several pha ...

GLP-1R = details: tirzepatide; cited from earlier work
Source text: In summary, we have described here significant differences in the trafficking and spatiotemporal signaling propensities of the 2 incretin receptors following their stimulation with native agonists in beta cells. While the GLP-1R is a rapidly internalizing receptor with increased propensity for β-arrestin 2 recruitment, endosomal localization and activity, and lysosomal degradation, the GIPR is associated with reduced coupling to G proteins and β-arrestin 2, as well as reduced internalization and endosomal activity, increased recycling, and an overall increase in beta cell signaling despite hig ...

SNAP-tagged human GIPR [2] = assay: Confocal microscopy of co-internalization with FITC agonist, SNAP-GIPR; type: cell-based
Source text: (§2) Figure 1. Beta cell GLP-1R vs GIPR trafficking patterns. […] (B) Rates of GLP-1R vs GIPR internalization (k values) derived from (A) by one-phase association (with Y0 = 0) of baseline-deleted DERET data; n = 5. (C) GLP-1R vs GIPR internalization dose response curves measured by high-content microscopy assay (HCA) in the same cells as above. […] (F) Quantification of surface GLP-1R vs GIPR levels in WT mouse islets using fluorescent agonist uptake data from (E); data corrected for binding affinity differences between both agonists; n = 4. (G) GLP-1R vs GIPR recycling dose response curves measured by high-content microscopy assay (HCA) in cells from (C); n = 5. […] Nuclei (DAPI), blue. Data are mean ± SEM, compared by paired or unpaired t tests, or two-way ANOVA with Sidak's post hoc test; *P < .05, **P < .01, ***P < .001; size bars: 10 µm.
(§3) Finally, using alternative fluorescent conjugates labeled with TMR, the amount of TMR-labeled agonist intracellular accumulation during the first 5 minutes of stimulation for each receptor correlated with the previously shown receptor internalization results in INS-1 832/3 SNAP-GLP-1R/SNAP-GIPR cell lines (Supplemental Fig. 3A and 3B) ([32]).

[3] = system: endogenous GIPR in mouse islets; assay: Confocal imaging of TMR agonist in mouse primary islets, GIPR; type: cell-based
Description: as §1, §2

SNAP-tagged human GIPR [4] = assay: TMR agonist intracellular accumulation, INS-1 832/3 SNAP-GIPR; type: cell-based; details: 5 minutes poststimulation
Description: as §3

With “GLP-1-TMR: tetramethylrhodamine (TMR) conjugate of GLP-1(7-36)NH2 (HAEGTFTSDVSSYLEGQAAKEFIAWLVKGR-NH2; also: TMR conjugate, position not given here)” the “Localization of TMR agonist in WT mouse primary islets” value [1] was “predominantly localized in punctate structures reminiscent of endosomes”.
For tirzepatide, the “Efficacy compared with approved GLP-1R agonist monotherapies” value (T2D patients) is given as “enhanced efficacy” and the “Internalization and β-arrestin 2 recruitment at the GLP-1R” value (GLP-1R) is given as “reduced internalization and β-arrestin 2 recruitment at the GLP-1R”.
For “GIP-FITC: fluorescein isothiocyanate (FITC) conjugate of GIP(1-42) (YAEGTFISDYSIAMDKIHQQDFVNWLLAQKGKKNDWKHNITQ; also: FITC conjugate, position not given here)”, the SNAP-GIPR endocytosis (SNAP-tagged human GIPR [2]; 30 min, 100 nM GIP-FITC) was “only partial SNAP-GIPR endocytosis” and the “Intracellular GIP-FITC signal accumulation” value (SNAP-tagged human GIPR [2]; after 30 minutes of agonist stimulation) was “some intracellular GIP-FITC signal accumulation”.
For “GIP-TMR: tetramethylrhodamine (TMR) conjugate of GIP(1-42) (YAEGTFISDYSIAMDKIHQQDFVNWLLAQKGKKNDWKHNITQ; also: TMR conjugate, position not given here)”, the “GIP-TMR signal in islets at 100 nM” value ([3]; 100 nM, not shown) was “virtually undetectable”, the “Localization of TMR agonist in WT mouse primary islets” value ([3]; 1 µM GIP-TMR, 15 minutes) was “could be detected at the plasma membrane” and the “GIP-TMR uptake compared with GLP-1-TMR, dispersed mouse islet cells” value ([3]; dispersed mouse islet cells) was “markedly reduced”. The “TMR agonist signal in WT islets, GIP-TMR vs GLP-1-TMR” value ([3]; quantified in Fig. 1F, corrected for binding affinity differences, n = 4) was “significantly lower”, the “GIP-TMR signal at the plasma membrane, Gipr-/- (KO) islets” value ([3]; same concentration of GIP-TMR as WT (1 µM), specificity control) was “absent” and the “Intracellular accumulation of TMR-labeled agonist” value (SNAP-tagged human GIPR [4]) was “negligible”.
